Measurements published in paper PMC6958375 (Pharmaceuticals, 2019).
Entries after “also recorded” stand apart in the source; their conditions may differ. Read-outs that look alike come from different tables or passages of the source.

Legend:
[1] = DPPH free radical scavenging assay; format: biochemical; conditions: DPPH reduction, 1 h in the dark at room temperature, absorbance 517 nm
Method: The antioxidant activity was evaluated by the DPPH stable radical method. Trolox (6-hydroxy-2,5,7,8-tetramethyl-chroman-2-carboxylic acid) curve was used as the positive control. 100 μL of sample was added to aliquots of a solution made up with DPPH (4.8 mg) in MeOH (200 mL), and the mixture was incubated in the dark, for 1 h at room temperature. The absorbance was measured using a UV-VIS spectrophotometer, at 517 nm. The results were plotted as the percentage of absorbance disappearance at 517 nm [(1-A/A0) × 100] against the amount of sample divided by the initial concentration of DPPH; lower absorbance values of reaction mixture indicate higher free radical scavenging activity. ED50 corresponds to micrograms of fraction able to consume half the amount of free radical divided by micromoles of initial DPPH. The results were expressed as antiradical capacity (ARC), which is the inverse of ED50. Each point was acquired in triplicate.

[2] = system: Bcl-2; assay: Western blot of Bcl-2 in SUM 149 cells; format: cell-based, human; conditions: SUM 149, 24 h, compound at IC50
Text: (§1) In order to verify if the three analogues alter the expression of some targets of NF-κB, like curcumin, western blot analysis was used. […] In line with the results of NF-κB DNA-binding activity inhibition, only Compounds 1 and 3 caused a decrease of expression of some targets in the same cell lines. In particular, in SUM 149 cells only Compound 3 caused a decreased expression of Survivin (a 55% of reduction respect to control) and Bcl-2 (a 48% of reduction respect to control), while in MDA-MB-231 cells only Compound 1 caused a reduction of IAP1 expression (a 32% of reduction with respect to the control) (Figure 8 and Figure 9).
(§2) Whole-cell lysates were obtained from breast cancer cells using RIPA buffer (Santa Cruz Biotechnology Inc., Dallas, TX, USA) and 25 μg protein was subjected to 10% SDS-PAGE and transferred to Hybond-P membranes (GE Healthcare Europe GmbH, Freiburg, Germany). Filters were incubated with primary antibodies raised against β-actin (Sigma-Aldrich Srl, Milan, Italy), Bcl-2 (Santa Cruz Biotechnology Inc., Dallas, TX, USA), XIAP (Cell Signaling Technology, Danvers, MA), Survivin (Novus Biologicals, Littleton, CO), IAP1 (Cell Signaling Technology, Danvers, MA). […]
(§3) Immunoblots were quantified by densitometry, the data were expressed as arbitrary units (protein/β-actin).

[3] = system: 1-7HB2 cells; assay: Cell growth assay (MTS), normal cell line 1-7HB2; format: cell-based; conditions: cell growth inhibition, 72 h of treatment, mean ± SE
Method: (§4) Dr. Elda Tagliabue (Molecular Targeting Unit, Department of Experimental Oncology and Molecular Medicine, Fondazione Institute of Hospitalization and Scientific Care, National Cancer Institute, Milan, Italy) kindly provided us the human breast cancer cell lines: MDA-MB-231(ATCC: HTB-26—Rockville, MD, USA) and SUM 149 (SUM149PT—Asterand Bioscience Detroit, MI). The first was cultured in RPMI-1640 and the second was cultured in DMEM/F-12 supplemented with insulin (5 μg/mL). The cells were authenticated using the short tandem repeat profiling method in their Institute. Prof. Giulio Ghersi (STEBICEF Department, University of Palermo, Italy) kindly provided us the non-tumorigenic cell line 1-7HB2 (ECACC 10081201—Cancer Research Technology, London, UK) that was cultured in DMEM low glucose supplemented with hydrocortisone (5 μg/mL) and insulin (10 μg/mL). HL60, obtained from ATCC® (CCL-240, Rockville, MD, USA), and its variant HL60R, obtained by exposure to gradually increasing concentrations of doxorubicin, were cultured in RPMI-1640. All media were supplemented with 10% heat-inactivated fetal calf serum, 2 mM L-glutamine, 100 U/mL penicillin and 100 μg/mL streptomycin (all reagents were from EuroClone S.p.A., Milan, Italy; GE Healthcare Life Sciences, Logan, UT, USA). All cell lines were cultured in a humidified atmosphere at 37 °C in 5% CO2.
(§5) The cells were seeded at 2 × 10^4 cells/well onto 96-well plates and incubated at 37 °C overnight; at time 0, the medium was replaced with fresh complete medium supplemented of compounds at the indicated concentrations. Following 72 h of treatment, 16 μL of a commercial solution obtained from Promega Corporation (Madison, WI, USA) containing 3-(4,5-dimethylthiazol- 2-yl)-5-(3-carboxy methoxyphenyl)-2-(4-sulphophenyl)-2H-tetrazolium (MTS) and phenazine ethosulfate were added. After a incubation in a humidified atmosphere at 37 °C in 5% CO2, the bioreduction of MTS dye was evaluated by measuring the absorbance of each well at 490 nm, using a microplate absorbance reader (iMark Microplate Reader; Bio-Rad Laboratories, Inc., Hercules, CA, USA). Cell growth inhibition was expressed as a percentage (mean ± SE) of the absorbance of the control cells.

[4] = system: HL60R cells; assay: Cell growth assay, multidrug resistant HL60R; format: cell-based; conditions: read-out: HL60 R IC50
Method: as §4, §5

[5] = system: MDA-MB-231 cells; assay: Cell growth assay (MTS), MDA-MB-231; format: cell-based, human; conditions: 72 h of treatment, mean ± SE
Method: as §4, §5

[6] = system: NF-κB (p65 subunit); assay: NF-κB DNA-binding activity (TransAM), SUM 149 nuclear extracts; format: cell-based, human; conditions: SUM 149, compounds at IC50 values, 24 h of treatment
Text: (§6) The DNA-binding capacity of NF-κB (p65 subunit) was defined in the nuclear extracts of SUM 149 and MDA-MB-231 cells using the TransAM NF-κB and Nuclear Extract kits (Active Motif, Carlsbad, CA, USA). The determination of binding capacity was based on a 96-well plate, on which an oligonucleotide containing the NF-κB consensus binding site was fixed. […] After addition of a horseradish peroxidase-conjugated secondary antibody, a sensitive colorimetric readout was quantified by densitometry (iMark Microplate Reader; Bio-Rad Laboratories, Inc.). The control of specificity of the assay carried out according to the indications of manufacturer’s protocol. The results were expressed as arbitrary units: one unit indicated the DNA binding capacity exerted by 2.5 μg whole cell extract from Jurkat cells/microgram of protein from the nuclear extracts. Jurkat cells, stimulated with 12-O-tetradecanoylphorbol-13-acetate and calcium ionophore, are the positive control for NF-κB p65 activation.

[7] = system: NF-κB (p65 subunit); assay: NF-κB DNA-binding activity (TransAM), MDA-MB-231 nuclear extracts; format: cell-based, human; conditions: MDA-MB-231, compounds at IC50 values, 8 h of treatment
Text: as §6

[8] = system: SUM 149 cells; assay: Pro-oxidant effect by cell counting with NAC, SUM 149; conditions: for Cell Viability (%): SUM 149, cell counting, mean ± SE
Method: (§7) Pro-oxidant effects were examined by cell counting, adding N-acetyl-L-cysteine (NAC), an antioxidant molecule, 1h before compounds. Results were expressed as mean ± standard error (SE) of at least three different experiments performed in duplicate. All the chemicals were supplied by Sigma Aldrich Srl, Milan, Italy.

[9] = system: HL60 cells; assay: Cell growth assay, HL60; format: cell-based
Method: as §4, §5

[10] = system: MDA-MB-231 cells; assay: Pro-oxidant effect by cell counting with NAC, MDA-MB-231
Method: as §7

[11] = system: Survivin; assay: Western blot of Survivin in SUM 149 cells; format: cell-based, human; conditions: SUM 149, 24 h, compound at IC50
Text: as §1, §2, §3

[12] = system: SUM 149 cells; assay: Cell growth assay (MTS), SUM 149; format: cell-based, human; conditions: 72 h of treatment, mean ± SE
Method: as §4, §5

[13] = system: IAP1; assay: Western blot of IAP1 in MDA-MB-231 cells; format: cell-based, human; conditions: MDA-MB-231, 8 h, compound at IC50
Text: as §1, §2, §3

[14] = multidrug resistant variant of HL60, cell growth assay
[15] = acute promyelocytic leukemia HL60, cell growth assay, read-out: HL60 IC50
[16] = cell growth inhibition, read-out: SUM149 IC50 (converted)

Cc1c(C)c2c(c(C)c1O)CCC(C)(C(=O)O)O2 (stereo not drawn) [Trolox, 6-hydroxy-2,5,7,8-tetramethyl-chroman-2-carboxylic acid, reference compound]
ED50 [1]: 12.0 µM

4-phenylsulfanyl-(1E,6E)-1,7-bis(4-hydroxy-3-methoxyphenyl)hepta-1,6-diene-3,5-dione [Compound 3]
reduction of Bcl-2 expression respect to control [2]: 48%
IC50 [3]: 12.5 ± 0.43 µM
IC50 [4, 14]: 6.7 µM
IC50 ([5]; cell growth inhibition): 15 ± 0.85 µM
ED50 [1]: 19.2 µM
NF-κB DNA-binding activity [6]: stronger decrease than curcumin
NF-κB DNA-binding activity [7]: NF-κB inhibitors
Cell Viability (%) ([8]; NAC 2 mM 1 h before compound at its IC50): 14.0 ± 4.6%
Cell Viability (%) ([8]; compound alone at its IC50 (curc 14 μM, 1 11 μM, 2 13 μM, 3 14 μM)): 34.0 ± 2.1%
IC50 [9, 15]: < 1 µM
Cell Viability (%) ([10]; MDA-MB-231, cell counting, compound alone at its IC50 (curc 25 μM, 1 18 μM, 2 20 μM, 3 15 μM), mean ± SE): 25.6 ± 0.7%
reduction of Survivin expression respect to control [11]: 55%
IC50 [12, 16]: 13.5 ± 0.88 µM

C#CCOc1ccc(/C=C/C(=O)CC(=O)/C=C/c2ccc(OCC#C)c(OC)c2)cc1OC [Compound 2, (1E,6E)-1,7-bis(3-methoxy-4-propargyloxyphenyl)hepta-1,6-diene-3,5-dione]
1-7HB2 IC50 [3]: not reached
IC50 [4, 14]: 9 µM
IC50 ([5]; cell growth inhibition): 20 µM
IC50 [9, 15]: 17 µM
IC50 [12, 16]: 13.2 ± 1.59 µM

COc1cc(/C=C/C(=O)/C=C(O)/C=C/c2ccc(OCc3ccc(CBr)cc3)c(OC)c2)ccc1OCc1ccc(CBr)cc1 [Compound 5, (1E,6E)-1,7-bis [3-methoxy-4(4-methylbromobenzyl)oxyphenyl]hepta-1,6-diene-3,5-dione]
1-7HB2 IC50 [3]: not reached
MDA-MB-231 IC50 ([5]; cell growth inhibition): not reached
SUM149 IC50 ([12]; cell growth inhibition): not reached

COc1cc(/C=C/C(O)=C/C(=O)/C=C/c2ccc(OCc3ccc(CBr)cc3)c(OC)c2)ccc1O [Compound 4, (1E,6E)-1-(4-hydroxy-3-methoxyphenyl)-7-[3-methoxy-4(4-methylbromobenzyl)oxyphenyl] hepta-1,6-diene-3,5-dione]
1-7HB2 IC50 [3]: not reached
MDA-MB-231 IC50 ([5]; cell growth inhibition): not reached
SUM149 IC50 ([12]; cell growth inhibition): not reached

COc1cc(/C=C/C(=O)CC(=O)/C=C/c2ccc(O)c(OC)c2)ccc1O [Curcumin, reference compound]
IC50 [3]: 37.5 ± 0.51 µM
IC50 ([4]; HL60R): 40.5 µM
IC50 ([5]; Homo sapiens, MDA-MB-231, cell growth inhibition): 25.5 ± 0.35 µM
IC50 ([9]; Homo sapiens, HL-60, read-out: HL60 IC50): 47.5 µM
IC50 ([12]; Homo sapiens, SUM149, cell growth inhibition): 14 ± 0.29 µM

CC(=O)N[C@@H](CS)C(=O)O [NAC, N-acetyl-L-cysteine]
viability at 2000 µM ([8]; Homo sapiens, SUM149, read-out: Cell Viability (%)): 100 ± 9.5%
viability at 2000 µM ([10]; Homo sapiens, MDA-MB-231, read-out: Cell Viability (%)): 87 ± 3.9%

(1E,6E)-1-(4-hydroxy-3-methoxyphenyl)-7-(3-methoxy-4-propargyloxyphenyl)hepta-1,6-diene -3,5-dione [Compound 1]
IC50 [3]: 20 µM
IC50 [4, 14]: 7 µM
IC50 ([5]; cell growth inhibition): 18 µM
NF-κB DNA-binding activity [7]: NF-κB inhibitors; also recorded: greater effect than curcumin
IC50 [9, 15]: 14 µM
reduction of IAP1 expression with respect to the control [13]: 32%
IC50 [12, 16]: 11.2 µM
